According to US20200341014A1, “PD Marker of Hepatocyte Growth Factor (HGF)” (EISAI R&D MANAGEMENT CO., LTD., priority 2016, published 2020):

Key:
ApoA4 mRNA [1] = assay: Real-time PCR of liver ApoA4 mRNA in mice administered rh-HGF and c-Met inhibitor (Example 2); type: in vivo, mouse; conditions: FIG. 2
Protocol: (§1) To BALB/cAnNCrlCrlj male 6 weeks-old mice (CHARLES RIVER JAPAN), c-Met inhibitor PF-04217903 (50 mg/kg) (Selleck Chemicals #S1094, lot. 05) or vehicle (5% DMSO, 10% Tween80, 6.7 mmol/L aqueous hydrochloric acid solution) was orally administered at a dose of 10 mL/kg, and after 1 hour, rh-HGF (0.5, 1.5, 5.0, or 15 mg/kg) or PBS was intravenously administered. […] After euthanization, hepatic tissue was collected and immersed in RNA later (Ambion, #AM7021). Serum was collected from the blood collected.
From the harvested liver, total RNA was purified with TRIZOL Reagent (Invitrogen, #15596-018), RNeasy Mini Kit (QIAGEN, #74104), and RNase-Free DNase set (QIAGEN, #79254), and RNA concentration was measured by absorbance.
Quantification of ApoA4 mRNA by real-time PCR method was carried out according to Example 1.
(§2) With the results of ApoA4 mRNA quantification, Dunnett's multiple comparison test was carried out between the control and the rh-HGF administration groups.

human ApoA4 protein = assay: Western blot quantification of human ApoA4 protein in human hepatocyte culture supernatant; type: cell-based; conditions: FIG. 6
Protocol: (§3) Human primary culture hepatocytes seeded in a 24-well plate (3.8×10^5 cells/well, Biopredic International, #HEP220-MW24) were cultured for three days in Incubation Medium (product name: Biopredic International, #MIL214), then c-Met inhibitor PF-04217903 (final concentration 100 nmol/L) (Selleck Chemicals, #S1094, lot. 05) or vehicle (DMSO) was added, and after 1 hour, rh-HGF (final concentration 100, 300, or 1000 ng/mL) or (Incubation Medium) for the control group (Control) was added.
Using hepatocyte culture supernatant (the same culture supernatant as that of cells for preparation of mRNA) 24 Hours after addition of rh-HGF, ApoA4 protein was quantified by Western blot method. […] After washing three times with the above wash solution, chemiluminescence solution SuperSignal West Dura Extended Duration Substrate (Thermo Scientific) was added to allow luminescence, and ApoA4 protein was detected with LAS-4000 (FUJIFILM).
With the quantification results of ApoA4 protein, Dunnett's multiple comparison test was carried out between the control and the rh-HGF administration groups.

human ApoA4 mRNA = assay: Real-time PCR of human ApoA4 mRNA in human primary culture hepatocytes treated with rh-HGF; type: cell-based; conditions: FIG. 5
Protocol: as §3
From hepatocytes 24 hours after addition of rh-HGF, total RNA was purified with RNeasy Mini Kit (QIAGEN, #74104) and RNase-Free DNase set (QIAGEN, #79254), and RNA concentration was measured by absorbance. The purified total RNA was reverse transcripted using High-Capacity cDNA Reverse Transcription Kit with RNase Inhibitor (Applied Biosystems, #4374966) to create cDNA. With the cDNA obtained as the template, the amount of ApoA4 mRNA expressed was examined by real-time PCR method. 18S rRNA was used as the internal control for examination. […]
as §2

ApoA4 protein [2] = assay: Western blot quantification of serum ApoA4 protein in mice administered rh-HGF and c-Met inhibitor (Example 2); type: in vivo, mouse; conditions: FIG. 3
Protocol: as §1
Using the above serum, ApoA4 protein was quantified by Western blot method. To the serum diluted 200-folds with PBS (−) (Wako), ¼ volume of the electrophoresis buffer solution (313 mM Tris-HCl (pH 6.8), 10% SDS, 30% Glycerol, 0.2 mg/mL Bromo-phenol blue, and 25% 2-Mercaptoethnol) was added (the final dilution of the serum will be 250-folds), and this was subjected to heat treatment at 95° C. for 3 minutes. […] After washing three times with the above wash solution, chemiluminescence solution SuperSignal West Dura Extended Duration Substrate (Thermo Scientific) was added to allow luminescence, and ApoA4 protein was detected with LAS-4000 (FUJIFILM).
For the results of serum ApoA4 protein quantification, Dunnett's multiple comparison test was carried out between the control and the rh-HGF administration groups.

ApoA4 mRNA [3] = assay: Real-time PCR of ApoA4 mRNA from liver of healthy mice administered rh-HGF (Example 1); type: in vivo, mouse; conditions: rh-HGF 1.5 mg/kg intravenous, 8 and 24 hr; FIG. 1
Protocol: (§4) Using hepatocyte growth factor activator recombinantly expressed in Chinese hamster ovary (CHO) cells, human HGF recombinantly expressed in CHO cells were activated to obtain rh-HGF. BALB/cAnNCrlCrlj male 6 weeks-old mice (CHARLES RIVER JAPAN) were intravenously administered with Dulbecco's Phosphate buffered saline (PBS) (Wako, #045-29795) or rh-HGF (1.5 mg/kg). […] After euthanization, hepatic tissue was collected and immersed in RNA later (Ambion, #AM7021).
The same RNA as the sample employed for DNA microarray was reverse transcripted using High-Capacity cDNA Reverse Transcription Kit with RNase Inhibitor (Applied Biosystems, #4374966) to create cDNA. With the cDNA obtained as the template, the amount of ApoA4 mRNA expressed was examined by real-time PCR method. Hprt mRNA was used as the internal control for examination. For PCR reaction, PCR amplification reaction was carried out with TaqMan Fast Advanced Master Mix (Applied Biosystems, #4444557) and TaqMan Assay (ApoA4: Mm00431814_m1, Hprt: Mm03024075_m1, Applied Biosystems) and using ViiA7 Real-time PCR System (Applied Biosystems). […]
With the results of ApoA4 mRNA quantification, Dunnett's multiple comparison test was carried out between the control and the rh-HGF administration groups (FIG. 1).

ApoA4 gene expression = assay: DNA microarray analysis of hepatic tissue of healthy mice administered rh-HGF; type: in vivo, mouse
Protocol: as §4
From the harvested liver, total RNA was purified with TRIZOL Reagent (Invitrogen, #15596-018), RNeasy Mini Kit (QIAGEN, #74104), and RNase-Free DNase set (QIAGEN, #79254). RNA concentration was measured by absorbance, and then quality check was carried out with RNA 6000 Nano Assay Kit (Agilent Technologies, #5067-1511) using 2100 Bioanalyzer (Agilent Technologies).
The DNA microarray used was SurePrint G3 mouse GE 8×60K (Agilent Technologies, #G4852A). […] Among this, as molecules that may appear to possibly exist as soluble proteins, those having information of “Extracellular” or “Plasma membrane” in Gene Ontology annotation were extracted.

ApoA4 protein [4] = assay: Western blot quantification of serum ApoA4 protein in Jo2 liver failure mice; type: in vivo, mouse; conditions: rh-HGF at 1.5, 5, or 15 mg/kg, FIG. 4
Protocol: To BALB/cAnNCrlCrlj male 6 weeks-old mice (CHARLES RIVER JAPAN), 0.23 mg/kg of anti-Fas monoclonal antibody (clone name: Jo2, BD Pharmingen, #554254, lot#3269634) was administered once into the tail vein to create an acute liver failure model. […] For the control group (Control), PBS was administered into the tail vein.
Quantification of serum ApoA4 protein was carried out according to Example 2.
With the measurement results of PT, AST, ALT, and serum ApoA4 protein, Dunnett's multiple comparison test was carried out between the control and the rh-HGF administration groups (FIG. 4).

Jo2 liver failure model = assay: Severity of hepatopathy (AST, ALT, PT) in Jo2 liver failure model; type: in vivo, mouse; conditions: Jo2 liver failure mice, rh-HGF into tail vein 1 hour before anti-Fas MAb, 5 hours after MAb; FIG. 4
Protocol: To BALB/cAnNCrlCrlj male 6 weeks-old mice (CHARLES RIVER JAPAN), 0.23 mg/kg of anti-Fas monoclonal antibody (clone name: Jo2, BD Pharmingen, #554254, lot#3269634) was administered once into the tail vein to create an acute liver failure model. To this model, rh-HGF dissolved in PBS was administered into the tail vein at 0.15, 1.5, or 15 mg/kg 1 hour before administration of anti-Fas monoclonal antibody. For the control group (Control), PBS was administered into the tail vein. Five hours after the administration of anti-Fas monoclonal antibody, mice were retained under anesthesia by 3% isoflurane inhalation, blood was collected from the vein located behind the jaw bone, and Prothrombin time (PT) was measured with CoaguChek XS (Roche-diagnostics, #ES350009) and PT Test strips (Roche-diagnostics, #ES350054). […] The measurement of Aspartate Aminotransferase (AST) and Alanine transaminase (ALT) in the serum was each performed with L-type Wako AST·J2 (Wako) kit and L-type Wako ALT·J2 (Wako) kit and an automatic analysis device (Hitachi 7180 Automatic Analyzer, Hitachi High-Technologies). With the measurement results of PT, AST, ALT, and serum ApoA4 protein, Dunnett's multiple comparison test was carried out between the control and the rh-HGF administration groups (FIG. 4).

[5] = PF-04217903 50 mg/kg oral 1 hour before rh-HGF
[6] = PF-04217903 100 nmol/L added 1 hour before rh-HGF
[7] = rh-HGF 0.5-15 mg/kg intravenous, 24 hours

| Compound | Effect on rh-HGF induction of liver ApoA4 mRNA expression (ApoA4 mRNA [1]; [5]) | Effect on rh-HGF enhancement of extracellular release of human ApoA4 protein (human ApoA4 protein; [6]) | Effect on rh-HGF enhancement of human ApoA4 mRNA expression (human ApoA4 mRNA; [6]) | Effect on rh-HGF induction of serum ApoA4 protein (ApoA4 protein [2]; [5]) | ApoA4 mRNA expression in the liver (ApoA4 mRNA [1]; [7]) | ApoA4 mRNA expression in liver (real-time PCR, Hprt internal control) (ApoA4 mRNA [3]) | Signal value (average) 8 hours, ApoA4 (A_51_P327491) (ApoA4 gene expression; liver, 8 hr after rh-HGF 1.5 mg/kg intravenous) | Change in expression (vs 0 hours) 8 hours Ratio, ApoA4 (ApoA4 gene expression; liver, 8 hr after rh-HGF 1.5 mg/kg intravenous, vs PBS group) | Signal value (average) 24 hours, ApoA4 (A_51_P327491) (ApoA4 gene expression; liver, 24 hr after rh-HGF 1.5 mg/kg intravenous) | Change in expression (vs 0 hours) 24 hours Ratio, ApoA4 (ApoA4 gene expression; liver, 24 hr after rh-HGF 1.5 mg/kg intravenous, vs PBS group) | ApoA4 expression in liver (DNA microarray) (ApoA4 gene expression; rh-HGF 1.5 mg/kg intravenous vs PBS only (Group 1)) | Extracellular release of human ApoA4 protein (human ApoA4 protein; human primary culture hepatocytes, culture supernatant, rh-HGF 100, 300 or 1000 ng/mL, 24 hours) | Blood ApoA4 protein value (ApoA4 protein [4]) | Effect on elevation of ALT (Jo2 liver failure model) | Effect on elevation of AST (Jo2 liver failure model) | Effect on extension of PT (Prothrombin time) (Jo2 liver failure model) | Human ApoA4 mRNA expression (human ApoA4 mRNA; human primary culture hepatocytes, rh-HGF 100, 300 or 1000 ng/mL, 24 hours) | ApoA4 protein expression in the serum (ApoA4 protein [2]; [7]) |
| --- | --- | --- | --- | --- | --- | --- | --- | --- | --- | --- | --- | --- | --- | --- | --- | --- | --- | --- |
| OCCn1cc(-c2cnc3nnn(Cc4ccc5ncccc5c4)c3n2)cn1 [PF-04217903, reference compound] | significantly inhibited | inhibited | inhibited | inhibited | – | – | – | – | – | – | – | – | – | – | – | – | – | – |
| rh-HGF: human HGF recombinantly expressed in CHO cells, activated with hepatocyte growth factor activator recombinantly expressed in CHO cells | – | – | – | – | significantly induced/enhanced | strongly enhanced | 15738 | 6.46 | 13453 | 5.52 | enhancement of expression | strongly enhanced | significant elevation | strongly inhibited | strongly inhibited | strongly inhibited | strongly enhanced | induction of ApoA4 protein expression |
